Results reported in patent US20060240048A1 (priority 2002, published 2006).

Molecular target: T1, human cannabinoid CB2 receptor (Homo sapiens, UniProt P34972)
T1 construct: expressed in transfected cells; host or cells: Saccharomyces cerevisiae strain MMY23
Test: Cannabinoid CB2 receptor agonist activity, yeast reporter assay (FDGlu fluorescence);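 as to Emax: 100% equals maximal response of reference agonist HU210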
Assay type: cell-based
Settings: for Emax: read-out: efficacy value (Emax) at the cloned human cannabinoid CB2 receptor

T1 sequence (P34972 whole entry): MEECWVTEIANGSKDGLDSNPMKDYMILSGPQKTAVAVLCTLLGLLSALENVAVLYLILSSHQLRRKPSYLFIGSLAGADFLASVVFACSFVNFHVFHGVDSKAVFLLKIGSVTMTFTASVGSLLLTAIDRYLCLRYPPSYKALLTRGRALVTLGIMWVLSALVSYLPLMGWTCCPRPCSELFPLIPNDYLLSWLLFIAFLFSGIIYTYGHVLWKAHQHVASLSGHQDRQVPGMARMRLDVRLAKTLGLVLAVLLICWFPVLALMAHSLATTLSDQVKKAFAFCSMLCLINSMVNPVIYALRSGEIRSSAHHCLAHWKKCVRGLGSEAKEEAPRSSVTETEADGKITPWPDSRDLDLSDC

SMILES | EC50 [nM] | Emax [%]
O=C(NCC1CC1)c1cnc(Nc2cccc(F)c2)cc1C(F)(F)F [Example 132, N-Cyclopropylmethyl-6-(3-fluoro-phenylamino)-4-tri-fluoromethyl-nicotinamide] | < 300 | > 50
O=C(NCC1CCS(=O)(=O)C1)c1cnc(Nc2cccc(F)c2)cc1C(F)(F)F (stereo not shown) [Example 133, N-(1,1-Dioxo-tetrahydro-thiophen-3-ylmethyl)-6-(3-fluoro-phenylamino)-4-trifluoromethyl-nicotinamide] | < 300 | > 50
O=C(NCC1CCC1)c1cnc(Nc2ccc(F)cc2)cc1C(F)(F)F [Example 134, N-Cyclobutylmethyl-6-(4-fluoro-phenylamino)-4-trifluoromethyl-nicotinamide] | < 300 | > 50
O=C(NCC1CCOCC1)c1cnc(Nc2cccc(Cl)c2Cl)cc1C(F)(F)F [Example 135, N-(Tetrahydropyran-4-yl-methyl)-6-(2,3-dichloro-phenylamino)-4-trifluoro-methyl-nicotinanhide] | < 300 | > 50
O=C(NCC1CCCCCC1)c1cnc(Nc2cccc(Cl)c2Cl)cc1C(F)(F)F [Example 137, N-Cycloheptylmethyl-6-(2,3-dichloro-phenylamino)-4-tri-fluoromethyl-nicotinamide] | < 300 | > 50
O=C(NCC1CCCCC1)c1cnc(Nc2ccc(Cl)cc2Cl)cc1C(F)(F)F [Example 138, N-Cyclohexylmethyl-6-(2,4-dichloro-phenylamino)-4-tri-fluoromethyl-nicotinamide] | < 300 | > 50
O=C(NCC1CCCCCC1)c1cnc(Nc2ccc(Cl)cc2Cl)cc1C(F)(F)F [Example 139, N-Cycloheptylmethyl-6-(2,4-dichloro-phenylamino)-4-tri-fluoromethyl-nicotinamide] | < 300 | > 50
O=C(NC1CCC1)c1cnc(Nc2ccc(Cl)cc2Cl)cc1C(F)(F)F [Example 140, N-Cyclobutyl-6-(2,4-dichloro-phenylamino)-4-trifluoro-methyl-nicotinamide] | < 300 | > 50
O=C(NCC1CCCC1)c1cnc(Nc2ccc(Cl)cc2Cl)cc1C(F)(F)F [Example 141, N-Cyclopentylmethyl-6-(2,4-dichloro-phenylamino)-4-tri-fluoromethyl-nicotinamide] |  | > 50
O=C(NCC1CCC1)c1cnc(Nc2ccc(Cl)cc2Cl)cc1C(F)(F)F [Example 142, N-Cyclobutylmethyl-6-(2,4-dichloro-phenylamino)-4-tri-fluoromethyl-nicotinamide] | < 300 | > 50
CC(C)CNC(=O)c1cnc(Nc2ccc(Cl)cc2Cl)cc1C(F)(F)F [Example 143, N-Isobutyl-6-(2,4-dichloro-phenylamino)-4-trifluoro-methyl-nicotinamide] | < 300 | > 50
O=C(NCC1CC1)c1cnc(Nc2ccc(Cl)cc2Cl)cc1C(F)(F)F [Example 144, N-Cyclopropylmethyl-6-(2,4-dichloro-phenylamino)-4-tri-fluoromethyl-nicotinamide] | < 300 | > 50
O=C(NCC1CCCCC1)c1cnc(Nc2cc(Cl)cc(Cl)c2)cc1C(F)(F)F [Example 146, N-Cyclohexylmethyl-6-(3,5-dichloro-phenytamino)-4-tri-fluoromethyl-nicotinamide] | < 300 | > 50
O=C(NCC1CCOCC1)c1cnc(Nc2cc(Cl)cc(Cl)c2)cc1C(F)(F)F [Example 147, N-(Tetrahydropyran-4-yl-methyl)-6-(3,5-dichloro-phenylamino)-4-trifluoro-methyl-nicotinamide] | < 300 | > 50
O=C(NC1CCC1)c1cnc(Nc2cc(Cl)cc(Cl)c2)cc1C(F)(F)F [Example 148, N-Cyclobutyl-6-(3,5-dichloro-phenylamino)-4-trifluoro-methyl-nicotinamide] | < 300 | > 50
O=C(NCC1CCCC1)c1cnc(Nc2cc(Cl)cc(Cl)c2)cc1C(F)(F)F [Example 149, N-Cyclopentylmethyl-6-(3,5-dichloro-phenylamino)-4-tri-fluoromethyl-nicotinamide] | < 300 | > 50
O=C(NCC1CCC1)c1cnc(Nc2cc(Cl)cc(Cl)c2)cc1C(F)(F)F [Example 150, N-Cyclobutylmethyl-6-(3,5-dichloro-phenylamino)-4-tri-fluoromethyl-nicotinamide] | < 300 | > 50
CC(C)CNC(=O)c1cnc(Nc2cc(Cl)cc(Cl)c2)cc1C(F)(F)F [Example 151, N-Isobutyl-6-(3,5-dichloro-phenylamino)-4-trifluoro-methyl-nicotinamide] | < 300 | > 50
O=C(NCC1CC1)c1cnc(Nc2cc(Cl)cc(Cl)c2)cc1C(F)(F)F [Example 152, N-Cyclopropylmethyl-6-(3,5-dichloro-phenylamino)-4-tri-fluoromethyl-nicotinamide] | < 300 | > 50

SMILES | EC50 [nM] | Emax [%]
CC(C)CNC(=O)c1cnc(Nc2ccc(Cl)c(Cl)c2)cc1C(F)(F)F [Example 153, N-Isobutyl-6-(3,4-dichloro-phenylamino)-4-trifluoro-methyl-nicotinamide] | < 300 | > 50
O=C(NC1CCC1)c1cnc(Nc2ccc(Cl)c(Cl)c2)cc1C(F)(F)F [Example 154, N-Cyclobutyl-6-(3,4-dichloro-phenylamino)-4-trifluoro-methyl-nicotinamide] | < 300 | > 50
O=C(NCC1CCOCC1)c1cnc(Nc2ccc(Cl)c(Cl)c2)cc1C(F)(F)F [Example 155, N-(Tetrahydropyran-4-yl-methyl)-6-(3,4-dichloro-phenylamino)-4-trifluoro-methyl-nicotinamide] | < 300 | > 50
O=C(NCC1CCCC1)c1cnc(Nc2ccc(Cl)c(Cl)c2)cc1C(F)(F)F [Example 156, N-Cyclopentylmethyl-6-(3,4-dichloro-phenylamino)-4-tri-fluoromethyl-nicotinamide] | < 300 | > 50
O=C(NCC1CCC1)c1cnc(Nc2ccc(Cl)c(Cl)c2)cc1C(F)(F)F [Example 157, N-Cyclobutylmethyl-6-(3,4-dichloro-phenylamino)-4-tri-fluoromethyl-nicotinamide] | < 300 | > 50
O=C(NCC1CC1)c1cnc(Nc2ccc(Cl)c(Cl)c2)cc1C(F)(F)F [Example 158, N-Cyclopropylmethyl-6-(3,4-dichloro-phenylamino)-4-tri-fluoromethyl-nicotinamide] | < 300 | > 50
O=C(NCC1CCCCC1)c1cnc(Nc2ccc(Cl)c(Cl)c2)cc1C(F)(F)F [Example 159, N-Cyclohexylmethyl-6-(3,4-dichloro-phenylamino)-4-tri-fluoromethyl-nicotinamide] | < 300 | > 50
O=C(NCC1CCC1)c1cnc(Nc2ccc(Cl)cc2F)cc1C(F)(F)F [Example 160, N-Cyclobutylmethyl-6-(2-fluoro-4-chloro-phenyl-amino)-4-trifluoromethyl-nicotinamide] | < 300 | > 50
O=C(NCC1CCCC1)c1cnc(Nc2ccc(Cl)cc2F)cc1C(F)(F)F [Example 161, N-Cyclopentylmethyl-6-(2-fluoro-4-chloro-phenyl-amino)-4-trifluoromethyl-nicotinamide] | < 300 | > 50
O=C(NCC1CCOCC1)c1cnc(Nc2ccc(Cl)cc2F)cc1C(F)(F)F [Example 162, N-(Tetrahydropyran-4-yl-methyl)-6-(2-fluoro-4-chloro-phenylamino)-4-trifluoro-methyl-nicotinamide] | < 300 | > 50
O=C(NCC1CCC1)c1cnc(Nc2ccc(F)cc2Cl)cc1C(F)(F)F [Example 163, N-Cyclobutylmethyl-6-(2-Chloro-4-fluoro-phenyl-amino)-4-trifluoromethyl-nicotinamide] | < 300 | > 50
O=C(NCC1CCCC1)c1cnc(Nc2ccc(F)cc2Cl)cc1C(F)(F)F [Example 164, N-Cyclopentylmethyl-6-(2-Chloro-4-fluoro-phenyl-amino)-4-trifluoromethyl-nicotinamide] | < 300 | > 50
O=C(NCC1CCOCC1)c1cnc(Nc2ccc(F)cc2Cl)cc1C(F)(F)F [Example 165, N-(Tetrahydropyran-4-yl-methyl)-6-(2-chloro-4-fluoro-phenylamino)-4-trifluoro-methyl-nicotinamide] | < 300 | > 50
O=C(NCC1CCC1)c1cnc(Nc2ccc(F)cc2F)cc1C(F)(F)F [Example 166, N-Cyclobutylmethyl-6-(2,4-difluoro-phenylamino)-4-tri-fluoromethyl-nicotinamide] | < 300 | > 50
O=C(NCC1CCCC1)c1cnc(Nc2ccc(F)cc2F)cc1C(F)(F)F [Example 167, N-Cyclopentylmethyl-6-(2,4-difluoro-phenylamino)-4-tri-fluoromethyl-nicotinamide] | < 300 | > 50
COc1ccc(Cl)cc1Nc1cc(C(F)(F)F)c(C(=O)NCC2CCC2)cn1 [Example 169, N-Cyclobutylmethyl-6-(2-methoxy-5-chloro-phenyl-amino)-4-trifluoromethyl-nicotinamide] |  | > 50
O=C(NCC1CCOCC1)c1cnc(Nc2cc(Cl)ccc2O)cc1C(F)(F)F [Example 170, N-(Tetrahydropyran-4-yl-methyl)-6-(2-hydroxy-5-chloro-phenylamino)-4-trifluoromethyl-nicotinamide] | < 300 | > 50
Cc1cc(Cl)ccc1Nc1cc(C(F)(F)F)c(C(=O)NCC2CCCCC2)cn1 [Example 171, N-Cyclohexylmethyl-6-(2-methyl-4-chloro-phenyl-amino)-4-trifluoromethyl-nicotinamide] | < 300 | > 50
Cc1cc(Cl)ccc1Nc1cc(C(F)(F)F)c(C(=O)NCC2CCOCC2)cn1 [Example 172, N-(Tetrahydropyran-4-yl-methyl)-6-(2-methyl-4-chloro-phenylamino)-4-trifluoro-] |  | > 50
